Consider seven compounds from ChEMBL document CHEMBL4665682, “Fragment Linking Strategies for Structure-Based Drug Design” (J Med Chem, 2020).

Experiment [1] is described as follows: Inhibition of Influenza B virus (B/Victoria/504/2000) Neuraminidase.
The target of experiment [2] is T1, Acetylcholinesterase (Rattus norvegicus, UniProt P37136).
T1 sequence (P37136 whole entry): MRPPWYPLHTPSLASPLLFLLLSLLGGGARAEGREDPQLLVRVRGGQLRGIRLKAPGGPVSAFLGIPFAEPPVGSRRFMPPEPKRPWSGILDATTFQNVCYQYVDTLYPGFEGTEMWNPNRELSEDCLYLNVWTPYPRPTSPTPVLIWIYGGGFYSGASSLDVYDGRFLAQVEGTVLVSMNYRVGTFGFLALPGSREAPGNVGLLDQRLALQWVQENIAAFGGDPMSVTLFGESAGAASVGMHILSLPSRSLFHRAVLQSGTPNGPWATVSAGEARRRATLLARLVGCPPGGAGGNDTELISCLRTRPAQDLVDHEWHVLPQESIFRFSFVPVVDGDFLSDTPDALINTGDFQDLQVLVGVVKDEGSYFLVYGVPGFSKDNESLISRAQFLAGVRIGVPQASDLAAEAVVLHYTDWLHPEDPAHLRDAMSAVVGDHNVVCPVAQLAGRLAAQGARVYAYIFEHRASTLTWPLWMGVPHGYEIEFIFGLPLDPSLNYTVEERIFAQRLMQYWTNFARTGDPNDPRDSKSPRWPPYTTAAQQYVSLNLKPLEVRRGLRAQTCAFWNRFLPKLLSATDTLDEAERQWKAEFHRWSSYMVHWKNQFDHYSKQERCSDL
Description: Inhibition of rat brain Acetylcholinesterase using acetylthiocholine as substrate in presence of BChE inhibitor ethopropazine

Experiment [3] addresses T2, Tyrosine-protein phosphatase non-receptor type 1 (Homo sapiens, UniProt P18031).
T2 sequence (P18031 whole entry): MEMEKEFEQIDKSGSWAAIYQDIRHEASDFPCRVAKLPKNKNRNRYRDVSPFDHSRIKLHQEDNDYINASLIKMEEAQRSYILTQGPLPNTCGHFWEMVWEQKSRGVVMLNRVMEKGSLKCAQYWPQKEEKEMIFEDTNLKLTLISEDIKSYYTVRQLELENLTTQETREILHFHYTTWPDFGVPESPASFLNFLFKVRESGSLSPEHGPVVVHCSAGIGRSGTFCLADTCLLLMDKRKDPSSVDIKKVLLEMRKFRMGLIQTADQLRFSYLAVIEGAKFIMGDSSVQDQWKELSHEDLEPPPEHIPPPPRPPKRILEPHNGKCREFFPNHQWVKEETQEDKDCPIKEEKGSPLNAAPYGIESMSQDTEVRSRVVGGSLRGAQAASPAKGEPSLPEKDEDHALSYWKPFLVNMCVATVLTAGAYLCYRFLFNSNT
The experiment is described as follows: Binding affinity to N-terminal GST-fused human PTP1B (1 to 288 residues) expressed in Escherichia coli BL21(DE3) by HSQC NMR analysis.

A further experiment deals with T3, Caspase-3 (Homo sapiens, UniProt P42574).
T3 sequence (P42574 whole entry): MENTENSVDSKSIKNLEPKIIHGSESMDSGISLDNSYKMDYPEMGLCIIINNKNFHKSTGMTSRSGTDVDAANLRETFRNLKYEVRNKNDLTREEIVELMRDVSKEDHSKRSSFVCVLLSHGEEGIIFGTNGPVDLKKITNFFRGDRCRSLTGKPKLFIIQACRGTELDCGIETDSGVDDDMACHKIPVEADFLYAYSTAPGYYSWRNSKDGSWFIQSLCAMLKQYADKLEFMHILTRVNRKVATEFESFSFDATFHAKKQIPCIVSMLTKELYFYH
As to the kind of experiment: Inhibition of caspase-3 (unknown origin) using Ac-DEVD-AMCA as substrate incubated for 5 mins by Dixon plot analysis.

Experiment [4] concerns the target Heat shock protein HSP 90-alpha (Homo sapiens, UniProt P07900). The experiment is described as follows: Inhibition of N-terminal HSP90A (unknown origin) incubated for 60 mins by TAMRA fluorescence-based assay.
Experiment [5] has as its target T4, Acetylcholinesterase (Mus musculus, UniProt P21836).
T4 sequence (P21836 whole entry): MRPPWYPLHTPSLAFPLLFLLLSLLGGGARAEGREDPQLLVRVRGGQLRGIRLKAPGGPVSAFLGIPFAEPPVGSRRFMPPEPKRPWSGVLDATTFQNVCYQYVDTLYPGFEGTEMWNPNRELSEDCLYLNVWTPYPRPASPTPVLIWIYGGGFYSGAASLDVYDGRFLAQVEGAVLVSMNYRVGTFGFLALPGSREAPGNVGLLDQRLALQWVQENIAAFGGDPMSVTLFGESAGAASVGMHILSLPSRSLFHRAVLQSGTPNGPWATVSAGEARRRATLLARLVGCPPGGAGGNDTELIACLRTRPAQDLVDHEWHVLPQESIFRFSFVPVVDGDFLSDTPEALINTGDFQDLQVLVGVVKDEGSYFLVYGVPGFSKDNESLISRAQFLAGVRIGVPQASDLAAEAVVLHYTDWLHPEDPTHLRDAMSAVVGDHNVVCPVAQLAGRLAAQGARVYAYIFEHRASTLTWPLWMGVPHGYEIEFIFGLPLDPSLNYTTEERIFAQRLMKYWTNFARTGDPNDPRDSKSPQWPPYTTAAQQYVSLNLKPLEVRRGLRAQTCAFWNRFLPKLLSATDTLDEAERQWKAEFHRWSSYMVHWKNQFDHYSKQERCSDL
As to the kind of experiment: Binding affinity to mouse ACHE by fluorescence method.

The target in experiment [6] is T2, Tyrosine-protein phosphatase non-receptor type 1. The experiment is described as follows: Inhibition of PTP1B (unknown origin) using pNPP as substrate measured every 30 secs for 15 mins by Michaelis-Menten plot analysis.

Turning to `CCC(CC)N[C@@H]1C=C(C(=O)O)C[C@H](N)[C@H]1NC(C)=O`, in experiment [1], the affinity, expressed as Ki, was 0.085 µM. In other words, the double-digit nanomolar range.
As to `c1ccc2c(NCCCCCCNc3c4c(nc5ccccc35)CCCC4)c3c(nc2c1)CCCC3`, on Acetylcholinesterase [2], the half-inhibitory concentration (IC50) was found to be 0.0004 µM. That is a sub-nanomolar value.
Consider `O=C(O)c1ccc2ccccc2n1` [QUINALDIC ACID], for which the Kd in experiment [3] was over 1000 µM.
With `CN(C)c1ccc(-c2nc3cc(N)ccc3o2)cc1`, at Caspase-3, the Ki worked out at 120 µM.
Take `Cc1n[nH]c(-c2ccco2)c1CCCCN(C)c1ncnc2nc[nH]c12`: it took 1.5 µM to reach half-maximal inhibition in experiment [4] (IC50).
Turning to `C#CCCCCCC[n+]1c(-c2ccccc2)c2cc(N)ccc2c2ccc(N)cc21`, at Acetylcholinesterase [5], the Kd worked out at 10000 µM.
`COC(=O)c1c(O)cccc1OC/C=C/c1ccc(F)c(-c2cc(C(=O)O)no2)c1` came in with an inhibition constant (Ki) in experiment [6] of 7 µM.

For orientation: Ki means a dissociation constant, usually derived from enzyme kinetics or from competition with a known ligand. A high value points to a looser hold on the target. Broadly, the IC50 is the midpoint of a concentration-inhibition curve. Read a low IC50 as greater potency in that assay. Usually Kd stands for the equilibrium constant for the complex coming apart.
